Measured values taken from patent US20210137961A1, “Compositions and Methods for Treating Dry Eye Diseases” (priority 2017, published 2021).
≈ marks a conversion by molar mass, not a printed value.

Experiments:
phospholipase = assay: Phospholipase inhibition in other cell lines; assay type: cell-based
[1] = system: phagocytized L. monocytogenes; assay type: cell-based
[2] = system: phagocytized L. pneumophila; assay type: cell-based
TNFα = assay: LPS-induced TNFα production in PMA-differentiated U937 cells (ELISA); assay type: cell-based, human
Experimental: (§1) EXAMPLE. […] Cells. The human monocytic cell line U937 was obtained from the American Type Culture Collection (ATCC, Rockville, Md.). PBMCs from COPD patients were obtained from Brompton hospital and separated by AccuSPIN (Sigma-Aldrich). […] U937 cells were differentiated into adherent macrophage-like morphology by exposure to PMA (50 ng/ml) for 48 h in complete growth medium. Cell viability was assessed microscopically by trypan blue staining. Cell toxicity was determined by MTT assay as needed. This study was approved by the ethics committee of the Royal Brompton Hospitals, and all subjects gave written informed consent. Cytokine ELISA. TNFα and IL-8 concentrations in the supernatant of cell cultures were determined by sandwich ELISA according to the manufacturer's instructions (R&D Systems Europe, Abingdon, UK). Statistical analysis. The results were expressed as the mean±SEM. Comparisons of data in two groups were performed using the Student's t test or the Wilcoxon signed rank test. Multiple comparisons were made by one-way ANOVA with post hoc test (Dunnett's) as appropriate. The difference was considered significant at p<0.05. […] Anti-inflammatory effects of solithromycin in U937 cells.

CXCL8 = assay: LPS-induced CXCL8 (IL-8) production in PMA-differentiated U937 cells (ELISA); assay type: cell-based, human
Experimental: as §1

MMP9 = MMP9 activity in PMA-stimulated U937 cells (gelatin zymography); assay type: cell-based, human; details: PMA stimulation
Experimental: EXAMPLE. […] Cells. The human monocytic cell line U937 was obtained from the American Type Culture Collection (ATCC, Rockville, Md.). PBMCs from COPD patients were obtained from Brompton hospital and separated by AccuSPIN (Sigma-Aldrich). […] U937 cells were differentiated into adherent macrophage-like morphology by exposure to PMA (50 ng/ml) for 48 h in complete growth medium. Cell viability was assessed microscopically by trypan blue staining. Cell toxicity was determined by MTT assay as needed. This study was approved by the ethics committee of the Royal Brompton Hospitals, and all subjects gave written informed consent. Zymography. MMP9 enzyme activity was measured by gelatin zymography. […] After electrophoresis, gels were incubated and rinsed with Novex® zymogram renaturing buffer (Invitrogen) for 30 min at room temperature. The gels were then rinsed in Novex® zymogram developing buffer (Invitrogen) for 30 min at room temperature prior to overnight incubation in the developing buffer at 37° C. After incubation, the gels were stained using a Colloidal Blue Staining Kit (Invitrogen) to visualize the zymogen bands. Statistical analysis. The results were expressed as the mean±SEM. Comparisons of data in two groups were performed using the Student's t test or the Wilcoxon signed rank test. Multiple comparisons were made by one-way ANOVA with post hoc test (Dunnett's) as appropriate. The difference was considered significant at p<0.05.

pathogenic bacteria = assay type: cell-based
H. influenzae = assay: MIC against H. influenzae (30 species); assay type: cell-based
Chlamydophila pneumoniae = assay: MIC against Chlamydophila pneumoniae; assay type: cell-based
Listeria monocytogenes = assay: MIC against Listeria monocytogenes; assay type: cell-based; details: N 10
Mycobacterium avium = assay: MIC against Mycobacterium avium; assay type: cell-based; details: N 30
Mycoplasma pneumoniae = assay: MIC against Mycoplasma pneumoniae; assay type: cell-based
Neisseria gonorrhoeae = assay: MIC against Neisseria gonorrhoeae; assay type: cell-based; details: N 34
Ureaplasma urealyticum = assay: MIC against Ureaplasma urealyticum; assay type: cell-based; details: N 10
[3] = system: Viridans group streptococci; assay: MIC against Viridans group streptococci; assay type: cell-based; details: N 51
Streptococcus mitis = assay: MIC against Streptococcus mitis; assay type: cell-based; details: N 73
Streptococcus pyogenes = assay: MIC against Streptococcus pyogenes; assay type: cell-based
[4] = solithromycin and telithromycin at 100 μM, clarithromycin at 333 μM
[5] = Streptococcus pyogenes (a), N 407

CC[C@H]1OC(=O)[C@@](C)(F)C(=O)[C@H](C)[C@@H](O[C@@H]2O[C@H](C)C[C@H](N(C)C)[C@H]2O)[C@](C)(OC)C[C@@H](C)C(=O)[C@H](C)[C@H]2N(CCCCn3cc(-c4cccc(N)c4)nn3)C(=O)O[C@]12C [Solithromycin, solithromycin]
reversibility of phospholipase inhibition (phospholipase; after dosing is stopped): rapidly reversible
IC50 (phospholipase; other cell lines, read-out: IC50 for phospholipase inhibition): 100 µM
activity against phagocytized bacteria, fold greater [1]: 50-100 fold
potency relative to azithromycin ([1]; phagocytized L. monocytogenes): 50 fold
potency relative to azithromycin [2]: 100 fold
IC50 (TNFα; LPS, PMA-differentiated U937 cells, read-out: IC50 on TNFα release): 41.6 ± 1.9 µM
inhibition of TNFα production (in words) (TNFα; [4]): significantly inhibited
IC50 (CXCL8; LPS, PMA-differentiated U937 cells, read-out: IC50 on CXCL8 release): 78.2 ± 9.5 µM
inhibition of CXCL8 (IL-8) production (in words) (CXCL8; [4]): significantly inhibited
IC50 (MMP9): 14.9 ± 3.1 µM
activity against Azi resistant strains (pathogenic bacteria): active against all Azi resistant strains tested
potency relative to Azi (pathogenic bacteria): 8-16 fold
activity relative to conventional macrolides (pathogenic bacteria; greater activity): 10 fold
intracellular activity relative to Azi (pathogenic bacteria; intracellular): 10 fold
I = intermediate susceptibility (H. influenzae): 0%
MIC50 (H. influenzae): 2000 ng/mL (≈ 2370 nM)
MIC90 (H. influenzae): 2000 ng/mL (≈ 2370 nM)
MIC Range (H. influenzae): 1000 to 4000 ng/mL
NS = not susceptible (H. influenzae): 0%
S = susceptible (H. influenzae): 100%
MIC90 (Chlamydophila pneumoniae; Chlamydophila pneumoniae (10 strains)): 250 ng/mL (≈ 296 nM)
MIC50 (Chlamydophila pneumoniae; Chlamydophila pneumoniae, N 10): 250 ng/mL (≈ 296 nM)
MIC90 (Chlamydophila pneumoniae; Chlamydophila pneumoniae, N 10): 250 ng/mL (≈ 296 nM)
MIC Range (Chlamydophila pneumoniae; Chlamydophila pneumoniae, N 10): 250 to 1000 ng/mL
MIC50 (Listeria monocytogenes): 30 ng/mL (≈ 35.5 nM)
MIC90 (Listeria monocytogenes): 30 ng/mL (≈ 35.5 nM)
MIC Range (Listeria monocytogenes): 30 ng/mL (≈ 35.5 nM)
MIC50 (Mycobacterium avium): 1000 ng/mL (≈ 1180 nM)
MIC90 (Mycobacterium avium): 1000 ng/mL (≈ 1180 nM)
MIC Range (Mycobacterium avium): 1000 ng/mL (≈ 1180 nM)
MIC90 (Mycoplasma pneumoniae; Mycoplasma pneumoniae (38 strains)): 0.125 ng/mL (≈ 0.148 nM)
MIC50 (Mycoplasma pneumoniae; Mycoplasma pneumoniae, N 38): 0.032 ng/mL (≈ 0.0379 nM)
MIC90 (Mycoplasma pneumoniae; Mycoplasma pneumoniae, N 38): 0.125 ng/mL (≈ 0.148 nM)
MIC Range (Mycoplasma pneumoniae; Mycoplasma pneumoniae, N 38): ≤6.3e-05 to 500 ng/mL
MIC50 (Neisseria gonorrhoeae): 60 ng/mL (≈ 71 nM)
MIC90 (Neisseria gonorrhoeae): 120 ng/mL (≈ 142 nM)
MIC Range (Neisseria gonorrhoeae): 30 to 250 ng/mL
MIC50 (Ureaplasma urealyticum): 8 ng/mL (≈ 9.47 nM)
MIC90 (Ureaplasma urealyticum): 31 ng/mL (≈ 36.7 nM)
MIC Range (Ureaplasma urealyticum): 4 to 63 ng/mL
MIC50 [3]: ≤8 ng/mL
MIC90 [3]: 60 ng/mL (≈ 71 nM)
MIC Range [3]: ≤0.008-0.12 ^ μg/mL
MIC50 (Streptococcus mitis): ≤30 ng/mL
MIC90 (Streptococcus mitis): 60 ng/mL (≈ 71 nM)
MIC Range (Streptococcus mitis): ≤0.03-0.25^ μg/mL
MIC90 (Streptococcus pyogenes; Streptococcus Pyogenes (100 strains)): 30 ng/mL (≈ 35.5 nM)
MIC50 (Streptococcus pyogenes; [5]): ≤30 ng/mL
MIC90 (Streptococcus pyogenes; [5]): ≤30 ng/mL
MIC Range (Streptococcus pyogenes; [5]): ≤0.03-0.5 ^ μg/mL
MIC50 (Streptococcus pyogenes; Streptococcus pyogenes, N 407): ≤30 ng/mL
MIC90 (Streptococcus pyogenes; Streptococcus pyogenes, N 407): ≤30 ng/mL
MIC Range (Streptococcus pyogenes; Streptococcus pyogenes, N 407): ≤0.03-0.5 ^ μg/mL
